In US20240327351A1, “AMIDE AND ETHER SUBSTITUTED N-(1H-INDOL-7-YL)BENZENESULFONAMIDES AND USES THEREOF” (TRIANA BIOMEDICINES, INC., priority 2021, published 2024):

Legend:
DCAF15 = DCAF15 (Homo sapiens, UniProt Q66K64); test: HTRF competition assay, binary interaction between compounds and DCAF15; format: binding; settings: competition with Alexa Fluor 647 tracer, His-tagged DCAF15 complex
Method: Example 7: Measurement of Binary Interaction Between Compounds And DCAF15 Using Homogeneous Time Resolved Fluorescence (HTRF)
DCAF15 interactions with test compounds were monitored using HTRF competition assays (Cisbio, Bedford, MA). Test compounds were first collected in a 384-well microplate (cat. #781280, Grenier Bio-One, Monroe, NC) as 10 mM stocks in 100% dimethyl sulfoxide (DMSO). A second stock plate (cat. #781280, Grenier Bio-One, Monroe, NC) was prepared through 3-fold serial dilution in DMSO of the afore-mentioned stocks using a Mosquito HTS dispenser (mosquito@ HTS, SPT Labtech, Boston, MA). 0.2 ul of these diluted stocks were then dispensed into a 384-well Optiplate (cat. #6007290, Perkin Elmer, Waltham, MA) in duplicate wells, to assemble the assay plate. The tracer molecule containing an Alexa Fluor 647 probe was prepared in 25 mM HEPES pH 7.5, 100 mM NaCl, 0.1 mg/ml BSA, 0.005% Tween 20, 0.5 mM TCEP (dilution buffer) to 612 nM (2.04×). Separately, His-tagged DCAF15 complex was prepared at 32 nM (4×) in the dilution buffer, and mAb Anti-6His-Eu cryptate Gold (cat. #61H12KLA, Cisbio, Bedford, MA) at 4× dilution in the detection buffer (cat. #61 DB9RDF, Cisbio, Bedford, MA). These two solutions were mixed and incubated for 15 min at room temperature. 9.8 ul of the tracer solution and 10 ul of the DCAF15/mAb Anti-6His-Eu cryptate Gold mixture were added sequentially to each well in the assay plate. Reaction mixtures with no DCAF15 added were included as positive controls. The final mixture was incubated for an hour at room temperature and spun down briefly before data collection at 615 nm and 666 nm using En Vision 2104 Multilabel Plate Reader (Perkin Elmer, Bedford, MA). Binding was estimated based on ratiometric analysis and titration curves were generated in GraphPad Prism (7.00, GraphPad, La Jolla, CA).

DCAF15/RBM39 = DCAF15/RBM39 (Homo sapiens, UniProt Q14498+Q66K64); test: AlphaLISA compound-induced DCAF15-RBM39 ternary complex formation; format: binding; settings: His-tagged DCAF15 complex and biotin-carrying RBM39
Method: Example 6: Quantitative Evaluation of Compound-Induced Ternary Complex Formation Using Amplified Luminescent Proximity Homogeneous Assay
Compound-induced DCAF15-RBM39 ternary complex formation was monitored using AlphaLISA® assays (Perkin Elmer, Waltham, MA). Test compounds were first collected in a 384-well microplate (cat. #781280, Grenier Bio-One, Monroe, NC) as 2 mM stocks in 100% dimethyl sulfoxide (DMSO). These stocks were then serially diluted in DMSO by 3-fold into a new plate (cat. #781280, Grenier Bio-One, Monroe, NC) using a Mosquito HTS dispenser (mosquito@ HTS, SPT Labtech, Boston, MA). 0.2 ul of these diluted stocks were then dispensed into a 384-well Optiplate (cat. #6007290, Perkin Elmer, Waltham, MA) in duplicate wells, to assemble the final assay plate consisting of duplicated dose ranges. Separately, a protein mixture consisting of His-tagged DCAF15 complex and biotin-carrying RBM39, each at 408 nM (2.04×), was prepared in 50 mM HEPES, pH 7.5, 100 mM NaCl, 2 mM MgCl2, 0.1% BSA, 2 mM TCEP, 0.05% Tween-20 (dilution buffer). 9.8 ul of this protein mixture was then mixed with the compounds in the assay plate and incubated for one hour at room temperature. Reaction mixtures with no compounds added were included as negative controls, while a His-tagged and biotinylated GST protein was included to track general assay performance. Nickel Chelate AlphaLISA Acceptor beads (cat. #AL108M, Perkin Elmer, MA) and AlphaScreen Streptavidin Donor beads (cat. #6760002, Perkin Elmer, Waltham, MA) were prepared separately in the dilution buffer as 4× stocks (80 ug/ml). The beads were then added to the assay plate sequentially with incubation at room temperature for 1-2 hours after each addition. Signals were recorded using EnVision 2104 Multilabel Plate Reader (Perkin Elmer, Waltham, MA) and titration curves were generated in GraphPad Prism (7.00, GraphPad, La Jolla, CA).

| SMILES | IC50 (DCAF15) | EC50 (DCAF15/RBM39) |
| --- | --- | --- |
| NCCc1ccc(COc2cccc(S(=O)(=O)Nc3ccc(Cl)c4c(Cl)c[nH]c34)c2)cc1 [Compound 59] | 10 to 100 µM | 1 to 10 µM |
| Cc1nc(-c2ccc(COc3cccc(S(=O)(=O)Nc4ccc(Cl)c5c(Cl)c[nH]c45)c3)cc2)no1 [Compound 63] | > 100 µM | 1 to 10 µM |
| Cc1nc(-c2ccc(COc3ccc(S(=O)(=O)Nc4ccc(Cl)c5c(Cl)c[nH]c45)cc3)cc2)no1 [Compound 64] | > 100 µM | > 100 µM |
| O=S(=O)(Nc1ccc(Cl)c2c(Cl)c[nH]c12)c1cccc(OCc2ccc3c(c2)CNC3)c1 [Compound 65] | > 100 µM | < 1 µM |
| Cn1nnc2cc(COc3ccc(S(=O)(=O)Nc4ccc(Cl)c5c(Cl)c[nH]c45)cc3)ccc21 [Compound 68] | > 100 µM | < 1 µM |
| CC1(CCOc2cccc(S(=O)(=O)Nc3ccc(Cl)c4c(Cl)c[nH]c34)c2)CCNCC1 [Compound 74] | 10 to 100 µM | < 1 µM |
| CS(=O)(=O)c1ccc(CCOc2cccc(S(=O)(=O)Nc3ccc(Cl)c4c(Cl)c[nH]c34)c2)cc1 [Compound 76] | > 100 µM | 1 to 10 µM |
| CS(=O)(=O)c1ccc(CCOc2ccc(S(=O)(=O)Nc3ccc(Cl)c4c(Cl)c[nH]c34)cc2)cc1 [Compound 77] | > 100 µM | 1 to 10 µM |
| Cn1cc(CCOc2cccc(S(=O)(=O)Nc3ccc(Cl)c4c(Cl)c[nH]c34)c2)c2ccccc21 [Compound 92] | > 100 µM | 10 to 100 µM |
| Cn1cc(CCOc2ccc(S(=O)(=O)Nc3ccc(Cl)c4c(Cl)c[nH]c34)cc2)c2ccccc21 [Compound 93] | > 100 µM | > 100 µM |
| O=S(=O)(Nc1ccc(Cl)c2c(Cl)c[nH]c12)c1cccc(OCCC[C@@H]2CCCN2)c1 [Compound 96] | > 100 µM | < 1 µM |
| O=S(=O)(Nc1ccc(Cl)c2c(Cl)c[nH]c12)c1cccc(OCCCC2CCNCC2)c1 [Compound 98] | 10 to 100 µM | 1 to 10 µM |
| CCc1cnc(N2CCC(CCCOc3cccc(S(=O)(=O)Nc4ccc(Cl)c5c(Cl)c[nH]c45)c3)CC2)nc1 [Compound 100] | > 100 µM | > 100 µM |
| CN1CCN(CCCOc2cccc(S(=O)(=O)Nc3ccc(Cl)c4c(Cl)c[nH]c34)c2)CC1 [Compound 104] | 10 to 100 µM | < 1 µM |
| O=S(=O)(Nc1ccc(Cl)c2c(Cl)c[nH]c12)c1cccc(OCCCN2CC3(COC3)C2)c1 [Compound 108] | > 100 µM | < 1 µM |
| O=S(=O)(Nc1ccc(Cl)c2c(Cl)c[nH]c12)c1ccc(OCCCc2ccc3c(c2)OCO3)cc1 [Compound 110] | > 100 µM | > 100 µM |

| SMILES | IC50 (DCAF15) | EC50 (DCAF15/RBM39) |
| --- | --- | --- |
| O=S(=O)(Nc1ccc(Cl)c2c(Cl)c[nH]c12)c1cccc(OCCCc2ccc3c(c2)OCO3)c1 [Compound 111] | > 100 µM | > 100 µM |
| O=c1oc2ccccc2n1CCCOc1cccc(S(=O)(=O)Nc2ccc(Cl)c3c(Cl)c[nH]c23)c1 [Compound 112] | > 100 µM | 1 to 10 µM |
| O=c1oc2ccccc2n1CCCOc1ccc(S(=O)(=O)Nc2ccc(Cl)c3c(Cl)c[nH]c23)cc1 [Compound 113] | > 100 µM | 1 to 10 µM |
| O=S(=O)(Nc1ccc(Cl)c2c(Cl)c[nH]c12)c1cccc(OCCCN2CCCc3ccccc32)c1 [Compound 114] | > 100 µM | 1 to 10 µM |
| CNCCCCCOc1ccc(S(=O)(=O)Nc2ccc(Cl)c3c(Cl)c[nH]c23)cc1 [Compound 144] | 1 to 10 µM | < 1 µM |
| CNCCCCCCOc1ccc(S(=O)(=O)Nc2ccc(Cl)c3c(Cl)c[nH]c23)cc1 [Compound 148] | 1 to 10 µM | < 1 µM |
| O=C(N[C@H]1CCc2ccccc21)c1ccc(S(=O)(=O)Nc2ccc(Cl)c3c(Cl)c[nH]c23)c(F)c1 [Compound 155] | > 100 µM | > 100 µM |
| O=C1CC[C@H](NC(=O)c2cccc(S(=O)(=O)Nc3ccc(Cl)c4c(Cl)c[nH]c34)c2F)CN1 [Compound 156] | 1 to 10 µM | < 1 µM |
| CC(C)(C)OC(=O)NC1(CNC(=O)c2cccc(S(=O)(=O)Nc3ccc(Cl)c4c(Cl)c[nH]c34)c2F)CC1 [Compound 162] | 1 to 10 µM | 1 to 10 µM |
| CC(C)(C)OC(=O)NC1(CNC(=O)c2ccc(S(=O)(=O)Nc3ccc(Cl)c4c(Cl)c[nH]c34)c(F)c2)CC1 [Compound 163] | 1 to 10 µM | 1 to 10 µM |
| O=C(NC[C@H]1Cc2ccccc21)c1cccc(S(=O)(=O)Nc2ccc(Cl)c3c(Cl)c[nH]c23)c1F [Compound 164] | 1 to 10 µM | 1 to 10 µM |
| O=C(NC[C@H]1Cc2ccccc21)c1ccc(S(=O)(=O)Nc2ccc(Cl)c3c(Cl)c[nH]c23)c(F)c1 [Compound 165] | > 100 µM | > 100 µM |
| O=C(NCC1CCN(CCCc2ccccc2)CC1)c1cccc(S(=O)(=O)Nc2ccc(Cl)c3c(Cl)c[nH]c23)c1F [Compound 166] | 1 to 10 µM | < 1 µM |
| CC(C)C(=O)Nc1cccc(CNC(=O)c2cccc(S(=O)(=O)Nc3ccc(Cl)c4c(Cl)c[nH]c34)c2F)c1 [Compound 168] | 1 to 10 µM | 1 to 10 µM |
| CC(C)C(=O)Nc1cccc(CNC(=O)c2ccc(S(=O)(=O)Nc3ccc(Cl)c4c(Cl)c[nH]c34)c(F)c2)c1 [Compound 169] | 1 to 10 µM | 1 to 10 µM |

The next lines start with the values.

| IC50 (DCAF15) | EC50 (DCAF15/RBM39) | SMILES |
| --- | --- | --- |
| 1 to 10 µM | 1 to 10 µM | NCCc1ccc(COc2ccc(S(=O)(=O)Nc3ccc(Cl)c4c(Cl)c[nH]c34)cc2)cc1 [Compound 60] |
| 1 to 10 µM | < 1 µM | O=S(=O)(Nc1ccc(Cl)c2c(Cl)c[nH]c12)c1ccc(OCc2ccc3c(c2)CNC3)cc1 [Compound 66] |
| 1 to 10 µM | < 1 µM | Cn1ncnc1COc1ccc(S(=O)(=O)Nc2ccc(Cl)c3c(Cl)c[nH]c23)cc1 [Compound 67] |
| 1 to 10 µM | < 1 µM | CC1(CCOc2ccc(S(=O)(=O)Nc3ccc(Cl)c4c(Cl)c[nH]c34)cc2)CCNCC1 [Compound 75] |
| 1 to 10 µM | < 1 µM | O=S(=O)(Nc1ccc(Cl)c2c(Cl)c[nH]c12)c1ccc(OCCC[C@@H]2CCCN2)cc1 [Compound 97] |
| 1 to 10 µM | < 1 µM | O=S(=O)(Nc1ccc(Cl)c2c(Cl)c[nH]c12)c1ccc(OCCCC2CCNCC2)cc1 [Compound 99] |
| 1 to 10 µM | 1 to 10 µM | O=S(=O)(Nc1ccc(Cl)c2c(Cl)c[nH]c12)c1ccc(OCCCCc2ccccn2)cc1 [Compound 140] |
| < 1 µM | < 1 µM | O=C1CC[C@H](NC(=O)c2ccc(S(=O)(=O)Nc3ccc(Cl)c4c(Cl)c[nH]c34)c(F)c2)CN1 [Compound 157] |
| < 1 µM | < 1 µM | CN1C[C@@H](NC(=O)c2cccc(S(=O)(=O)Nc3ccc(Cl)c4c(Cl)c[nH]c34)c2F)CCC1=O [Compound 158] |
| < 1 µM | < 1 µM | CN1C[C@@H](NC(=O)c2ccc(S(=O)(=O)Nc3ccc(Cl)c4c(Cl)c[nH]c34)c(F)c2)CCC1=O [Compound 159] |
| < 1 µM | < 1 µM | O=C(N[C@H]1CCCCNC1=O)c1cccc(S(=O)(=O)Nc2ccc(Cl)c3c(Cl)c[nH]c23)c1F [Compound 160] |
| < 1 µM | < 1 µM | O=C(N[C@H]1CCCCNC1=O)c1ccc(S(=O)(=O)Nc2ccc(Cl)c3c(Cl)c[nH]c23)c(F)c1 [Compound 161] |
| < 1 µM | < 1 µM | O=C(NCC1CCN(CCCc2ccccc2)CC1)c1ccc(S(=O)(=O)Nc2ccc(Cl)c3c(Cl)c[nH]c23)c(F)c1 [Compound 167] |
